Measured values published in US20250277001A1, “PEPTIDE DERIVATIVES AND RELATED USES AS OREXIN AGONISTS” (CENTESSA PHARMACEUTICALS (UK) LIMITED, priority 2022, published 2025).
Where two headings read alike, the source gives them in different places. Where a SMILES comes first, the peptide text is derived from it. [ ]: non-standard residue; d: D form. The star is where a group is joined. Malonyl(2,2-Me2,histaminyl) = CC(C)(C(=O)NCCc1cnc[nH]1)C(=O)*; d(hArg) = N=C(N)NCCCC[C@@H](N)C(=O)O; Gly(NCH2CH2Ph) = O=C(O)CNCCc1ccccc1; Hyp = O=C(O)[C@@H]1C[C@@H](O)CN1; hArg = N=C(N)NCCCC[C@H](N)C(=O)O; NMeN = CN[C@@H](CC(N)=O)C(=O)O; Aoc(2) = CCCCCC[C@H](N)C(=O)O; Phg = N[C@H](C(=O)O)c1ccccc1; Nle = CCCC[C@H](N)C(=O)O

Columns and labels:
[1] = target: T1, human orexin type 1 receptor (hOX1R) (Homo sapiens, UniProt O43613); experiment: Measurement of orexin type 1 receptor agonist activity (CHO cells, FLIPR TETRA intracellular Ca2+); assay type: cell-based
T1 construct: expressed in transfected cells
T1 sequence (O43613 1-425): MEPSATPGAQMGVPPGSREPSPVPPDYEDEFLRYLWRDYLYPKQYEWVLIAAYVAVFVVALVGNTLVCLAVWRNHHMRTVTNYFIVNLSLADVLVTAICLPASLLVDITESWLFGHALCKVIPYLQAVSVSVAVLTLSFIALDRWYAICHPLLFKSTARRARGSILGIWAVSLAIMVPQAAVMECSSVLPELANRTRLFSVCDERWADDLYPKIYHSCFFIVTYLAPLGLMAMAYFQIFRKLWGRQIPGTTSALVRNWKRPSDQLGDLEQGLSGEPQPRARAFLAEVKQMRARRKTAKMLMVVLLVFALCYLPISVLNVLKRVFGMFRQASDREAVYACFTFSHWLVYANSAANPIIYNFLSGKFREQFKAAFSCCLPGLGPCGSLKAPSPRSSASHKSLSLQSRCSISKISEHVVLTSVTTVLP
Excerpt: (§1) In some embodiments, the assay uses cells stably expressing either human orexin type 2 or human orexin type 1 receptor. In some embodiments, the cells are obtained by inserting the Orexin receptor cDNA into pcDNA3.1(+) plasmid vector, identifying clones by G418 drug resistance selection, and/or growing a single clone for OX2R-CHO and OX1R-CHO in bulk. In some embodiments, the assay is detected using Fluorescent Imaging Plate Reader TETRA (FLIPR TETRA: manufactured by Molecular Devices). In some embodiments, the agonist activity of the test peptide is calculated assuming that the fluorescence value of the well containing only the dilution buffer is 0% and the fluorescence value of the well containing 10 nM human orexin A (Tocris) buffer is 100%.
(§2) Stable cell line generation. Obtainment of cells stably expressing either human orexin type 2 or human orexin type 1 receptor: to obtain a stable cell line the Orexin receptor cDNA was inserted into pcDNA3.1(+) plasmid vector and clones identified by G418 drug resistance selection. […] A single clone for OX2R-CHO and OX1R-CHO were grown in bulk and frozen to generate a cell bank for routine screening.
(§3) Measurement of orexin type 1 receptor agonist activity. Chinese hamster ovary (CHO) cells expressing human orexin type 1 receptor (hOX1R) were seeded in each well of 384 well black clear bottom plates (BD Flacon) at 10,000 cells per well and cultured for 24 h in an Ham's F12 (Gibco) medium containing 10% fetal calf serum (Sigma Aldrich) under the conditions of 37° C., 5% CO2. After removal of the medium, 50 μL of assay buffer 1 (0.1% bovine serum albumin (Sigma Aldrich), 20 mM HEPES (Molecular Dimensions), […] probenecid (Sigma Aldrich), 1× Calcium 5 dye (Molecular Devices) in Hank's balanced salt solution (Invitrogen)) was added, and the cells were incubated for 60 min under the conditions of 37° C., 5% CO2. A test peptide was dissolved in dimethyl sulfoxide (Sigma Aldrich) to 1 mM, and then diluted with assay buffer 2 (20 mM HEPES, Hank's balanced salt solution, 0.1% bovine serum albumin). For the reaction, a test peptide solution (10 μl) was added using Fluorescent Imaging Plate Reader TETRA (FLIPR TETRA: manufactured by Molecular Devices), a fluorescence value (excitation wavelength 488 nm, measurement wavelength 570 nm) of each well was measured every one second for 2 min, and the agonist activity was determined using the area of the fluorescence value as an indicator of intracellular Ca^2+ concentration. The agonist activity of the test peptide was calculated assuming that the fluorescence value of the well added with only the dilution buffer was 0% and the fluorescence value of the well added with 10 nM human orexin A (Tocris) buffer was 100%. As used herein, Emax indicates the value at 1 μM concentration when orexin A is converted to a full agonist (maximum value of agonist activity: 100%).

[2] = target: T2, human orexin type 2 receptor (hOX2R) (Homo sapiens, UniProt O43614); experiment: Measurement of orexin type 2 receptor agonist activity (CHO cells, FLIPR TETRA intracellular Ca2+); assay type: cell-based
T2 construct: expressed in transfected cells
T2 sequence (O43614 1-444): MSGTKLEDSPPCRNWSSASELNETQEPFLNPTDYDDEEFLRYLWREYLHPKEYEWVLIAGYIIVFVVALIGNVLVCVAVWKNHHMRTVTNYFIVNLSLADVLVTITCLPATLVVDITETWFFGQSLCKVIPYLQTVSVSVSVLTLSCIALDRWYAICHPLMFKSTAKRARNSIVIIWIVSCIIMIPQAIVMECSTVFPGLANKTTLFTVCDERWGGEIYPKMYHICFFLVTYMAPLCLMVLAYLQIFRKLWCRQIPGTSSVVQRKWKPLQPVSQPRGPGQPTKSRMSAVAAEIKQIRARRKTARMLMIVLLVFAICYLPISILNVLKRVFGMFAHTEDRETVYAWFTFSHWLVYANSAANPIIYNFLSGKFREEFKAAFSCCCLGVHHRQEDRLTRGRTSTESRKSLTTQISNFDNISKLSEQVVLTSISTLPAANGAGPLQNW
Excerpt: as §1, §2
as §3, with “type 2” for “type 1”, “receptor (hOX2R)” for “receptor (hOX1R) were”

[3] = CHO cells expressing hOX1R, Ca2+ fluorescence, read-out: hOX1 pEC50 (converted)
[4] = CHO cells expressing hOX2R, Ca2+ fluorescence, read-out: hOX2 pEC50 (converted)

| Structure (SMILES) | EC50 [1] [nM] | EC50 [2] [nM] | other results |
| --- | --- | --- | --- |
| CCCCCC[C@H](NC(=O)[C@@H](NC(=O)[C@H](CC(C)C)NC(=O)[C@@H](NC(=O)CNC(=O)[C@@H](NC(=O)[C@H](C)NC(=O)[C@@H]1C[C@@H](O)CN1C(=O)[C@H](CC(N)=O)N(C)C(=O)CN(CCc1ccccc1)C(=O)[C@H](CCCCN)NC(=O)[C@@H]1CCCN1C(=O)[C@H](CCCCNC(=N)N)NC(=O)[C@H](CCC(N)=O)NC(=O)C(C)(C)C(=O)NCCc1cnc[nH]1)c1ccccc1)[C@@H](C)CC)[C@@H](C)O)C(N)=O [compound 8] ({Malonyl(2,2-Me2,histaminyl)}-Q[hArg]PK[Gly(NCH2CH2Ph)][NMeN][Hyp]A[Phg]GILT[Aoc(2)]-NH2) | > 10 | < 0.1 | – |
| CCCC[C@H](NC(=O)[C@@H](NC(=O)[C@H](CC(C)C)NC(=O)[C@@H](NC(=O)CNC(=O)[C@H](C)NC(=O)[C@H](C)NC(=O)[C@H](Cc1c[nH]cn1)NC(=O)[C@H](CC(N)=O)NC(=O)CNC(=O)[C@H](CO)NC(=O)[C@@H](C)NC(=O)[C@@H](Cc1ccccc1)NC(=O)[C@@H](CC(C)C)NC(=O)[C@@H](N)CC(C)C)[C@@H](C)CC)[C@@H](C)O)C(N)=O [compound 14] (H-L[dL][dF][dA]SGNHAAGILT[Nle]-NH2) | – | – | EC50 [1, 3]: > 10 nM; EC50 [2, 4]: < 0.1 nM |
| CCCC[C@H](NC(=O)[C@@H](NC(=O)[C@H](CC(C)C)NC(=O)[C@@H](NC(=O)CNC(=O)[C@@H](NC(=O)[C@H](C)NC(=O)[C@H](Cc1c[nH]cn1)NC(=O)[C@H](CC(N)=O)NC(=O)CNC(=O)[C@H](CO)NC(=O)[C@H](CCCNC(=N)N)NC(=O)[C@@H](N)Cc1c[nH]c2ccccc12)c1ccccc1)[C@@H](C)CC)[C@@H](C)O)C(N)=O [SEQ ID NO:8, TRP-ARG-SER-GLY-ASN-HIS-ALA-Phg-GLY-ILE-LEU-THR-NLE-NH2] (H-WRSGNHA[Phg]GILT[Nle]-NH2) | – | – | EC50 ([1]; 13 amino acid sequences, Example 4, read-out: OX1 pEC50 (converted)): > 316 nM; EC50 ([2]; 13 amino acid sequences, Example 4, read-out: OX2 pEC50 (converted)): > 1.58 nM |
| CCCCCC[C@H](NC(=O)[C@@H](NC(=O)[C@H](CC(C)C)NC(=O)[C@@H](NC(=O)CNC(=O)[C@@H](NC(=O)[C@H](C)NC(=O)[C@@H]1C[C@@H](O)CN1C(=O)[C@H](CC(N)=O)N(C)C(=O)CN(CCc1ccccc1)C(=O)[C@H](CCCNC(=N)N)NC(=O)[C@@H]1CCCN1C(=O)[C@H](CCCCNC(=N)N)NC(=O)[C@@H](CCC(N)=O)NC(=O)C(C)(C)C(=O)NCCc1cnc[nH]1)c1ccccc1)[C@@H](C)CC)[C@@H](C)O)C(N)=O [compound 4] ({Malonyl(2,2-Me2,histaminyl)}-[dQ][hArg]PR[Gly(NCH2CH2Ph)][NMeN][Hyp]A[Phg]GILT[Aoc(2)]-NH2) | > 10 | < 0.1 | – |
| CCCCCC[C@H](NC(=O)[C@@H](NC(=O)[C@H](CC(C)C)NC(=O)[C@@H](NC(=O)CNC(=O)[C@@H](NC(=O)[C@H](C)NC(=O)[C@@H]1C[C@@H](O)CN1C(=O)[C@H](CC(N)=O)N(C)C(=O)CN(CCc1ccccc1)C(=O)[C@H](CCCNC(=N)N)NC(=O)[C@@H]1CCCN1C(=O)[C@@H](CCCCNC(=N)N)NC(=O)[C@H](CCC(N)=O)NC(=O)C(C)(C)C(=O)NCCc1cnc[nH]1)c1ccccc1)[C@@H](C)CC)[C@@H](C)O)C(N)=O [compound 5] ({Malonyl(2,2-Me2,histaminyl)}-Q[d(hArg)]PR[Gly(NCH2CH2Ph)][NMeN][Hyp]A[Phg]GILT[Aoc(2)]-NH2) | > 10 | < 0.1 | – |
| CCCCCC[C@H](NC(=O)[C@@H](NC(=O)[C@H](CC(C)C)NC(=O)[C@@H](NC(=O)CNC(=O)[C@@H](NC(=O)[C@H](C)NC(=O)[C@@H]1C[C@@H](O)CN1C(=O)[C@H](CC(N)=O)NC(=O)CN(CCc1ccccc1)C(=O)[C@H](CCCNC(=N)N)NC(=O)[C@H](CCCNC(=N)N)NC(=O)[C@@H]1CCCN1C(=O)[C@H](CCCCNC(=N)N)NC(=O)[C@@H](CCC(N)=O)NC(=O)C(C)(C)C(=O)NCCc1cnc[nH]1)c1ccccc1)[C@@H](C)CC)[C@@H](C)O)C(N)=O [compound 20] ({Malonyl(2,2-Me2,histaminyl)}-[dQ][hArg]PRR[Gly(NCH2CH2Ph)]N[Hyp]A[Phg]GILT[Aoc(2)]-NH2) | 1 to 10 | < 0.1 | – |
| CCCCCC[C@H](NC(=O)[C@@H](NC(=O)[C@H](CC(C)C)NC(=O)[C@@H](NC(=O)CNC(=O)[C@@H](NC(=O)[C@H](C)NC(=O)[C@@H]1C[C@@H](O)CN1C(=O)[C@H](CC(N)=O)NC(=O)CN(CCc1ccccc1)C(=O)[C@H](CCCNC(=N)N)NC(=O)[C@@H]1C[C@@H](O)CN1C(=O)[C@@H]1C[C@@H](O)CN1C(=O)[C@@H]1C[C@@H](O)CN1)c1ccccc1)[C@@H](C)CC)[C@@H](C)O)C(N)=O [compound 9] (H-[Hyp][Hyp][Hyp]R[Gly(NCH2CH2Ph)]N[Hyp]A[Phg]GILT[Aoc(2)]-NH2) | – | – | EC50 [1, 3]: > 10 nM; EC50 [2, 4]: < 0.1 nM |
| CCCCCC[C@H](NC(=O)[C@@H](NC(=O)[C@H](CC(C)C)NC(=O)[C@@H](NC(=O)CNC(=O)[C@@H](NC(=O)[C@H](C)NC(=O)[C@@H]1C[C@@H](O)CN1C(=O)[C@H](CC(N)=O)N(C)C(=O)CN(CCc1ccccc1)C(=O)[C@H](CCCNC(=N)N)NC(=O)[C@H]1CCCN1C(=O)[C@H](CCCCNC(=N)N)NC(=O)[C@H](CCC(N)=O)NC(=O)C(C)(C)C(=O)NCCc1cnc[nH]1)c1ccccc1)[C@@H](C)CC)[C@@H](C)O)C(N)=O [compound 6] ({Malonyl(2,2-Me2,histaminyl)}-Q[hArg][dP]R[Gly(NCH2CH2Ph)][NMeN][Hyp]A[Phg]GILT[Aoc(2)]-NH2) | > 10 | < 0.1 | – |
